As a reminder, the pEC50 is the negative decadic logarithm of the EC50, by convention in mol/L.

pEC50: −log10 of the molar value.

For the experiment, the target named is T1, GLP-1 Receptor (Homo sapiens, UniProt P43220).
T1 construct: host or cells: HEK293/CRE-Luc (HEK293/GLP1R/CRE-LUC)
T1 sequence (P43220 24-463, species assumed): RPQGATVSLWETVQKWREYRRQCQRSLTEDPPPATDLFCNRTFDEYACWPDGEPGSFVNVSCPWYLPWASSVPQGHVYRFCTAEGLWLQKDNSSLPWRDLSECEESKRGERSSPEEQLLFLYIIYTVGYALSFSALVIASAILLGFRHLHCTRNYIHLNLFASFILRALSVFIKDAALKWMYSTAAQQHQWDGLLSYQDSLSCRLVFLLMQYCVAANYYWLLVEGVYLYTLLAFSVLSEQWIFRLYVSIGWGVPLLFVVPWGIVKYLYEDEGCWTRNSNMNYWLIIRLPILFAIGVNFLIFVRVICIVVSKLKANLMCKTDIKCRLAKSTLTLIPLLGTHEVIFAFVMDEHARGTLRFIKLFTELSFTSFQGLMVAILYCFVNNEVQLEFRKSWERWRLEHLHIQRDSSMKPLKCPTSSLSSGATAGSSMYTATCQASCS
Kind of experiment: GLP-1R agonist cAMP stimulation assay (HEK293/GLP1R/CRE-LUC cells, Cisbio cAMP dynamic 2 kit). The note with it: HEK293/CRE-Luc cells stably expressing the GLP-1 Receptor, 30 min at 37° C. The experiment is classed as cell-based. The method, then: Activation of GLP-1 receptor is known to stimulate cyclic AMP (cAMP) production in cells which indicates primary coupling to the Gas subunit of the G protein heterotrimeric complex.
To optimize functional activity directed toward Gas coupling, a HEK293/CRE-Luc cell line developed by HDB stably expressing the GLP-1 Receptor was used. 200× concentration of compound working solutions were prepared (Agilent Technologies Bravo) with ½ log serial dilution in 384-well Echo LDV plate (Labcyte, Cat #LP-0200). […] 200× concentration of compound working solutions were moved to 384-well white low volume plate (Greiner, Cat #784075) using Labcyte ECHO550. 1×10^5 cells/mL HEK293/GLP1R/CRE-LUC (HD Biosciences) cell suspensions prepared with assay buffer [DPBS containing 0.5 mM IBMX (Sigma, Cat #15879) and 0.1% BSA (GENVIEW, Cat #FA016-100g)], 10 μL cell suspensions were added to each well of previous generated assay plate which already contains […] compound at 200×concentration using ThermoFisher Multidrop Combi (1000 cells/well). Seal the plate and incubate at 37° C. with 5% CO2 for 30 min.
After incubation the cAMP assay signal was generated using cAMP dynamic 2 Kit (Cisbio). 5 μL cAMP-d2 working solution was added to each well, followed with 5 μL Anti-cAMP antibody-cryptate working solution added to each well using ThermoFisher Multidrop Combi. Incubate at room temperature for 1 hour protected from light. Read the fluorescence at 665 and 615 nm with Reader PerkinElmer EnVision.
In turn, `NC(=O)c1nnc(-c2cc3nc(CN4CC=C(c5ccc(F)c(OCc6ccc(Cl)cc6F)c5)CC4)n(C[C@@H]4CCO4)c3cn2)[nH]1` [Compound 32, (S)-5-(2-((4-(3-((4-chloro-2-fluorobenzyl)oxy)-4-fluorophenyl)-3,6-dihydropyridin-1(2H)-yl)methyl)-3-(oxetan-2-ylmethyl)-3H-imidazo[4,5-c]pyridin-6-yl)-4H-1,2,4-triazole-3-carboxamide] gave a pEC50 of over 9.00. Turning to `N#Cc1nnc(-c2cc3nc(CN4CC=C(c5ccc(F)c(OCc6ccc(Cl)cc6F)c5)CC4)n(C[C@@H]4CCO4)c3cn2)[nH]1` [Compound 33, (S)-5-(2-((4-(3-((4-chloro-2-fluorobenzyl)oxy)-4-fluorophenyl)-3,6-dihydropyridin-1(2H)-yl)methyl)-3-(oxetan-2-ylmethyl)-3H-imidazo[4,5-c]pyridin-6-yl)-4H-1,2,4-triazole-3-carbonitrile], the negative logarithm of the EC50 (pEC50) is over 9.00.

With `C[C@]1(c2ccc(Cl)cc2F)Oc2cccc(C3CCN(Cc4nc5c(F)c(-c6noc(=O)[nH]6)ccc5n4C[C@@H]4CCO4)CC3)c2O1` [Compound 34, 3-(2-((4-((S)-2-(4-chloro-2-fluorophenyl)-2-methylbenzo[d][1,3]dioxol-4-yl)piperidin-1-yl)methyl)-4-fluoro-1-(((S)-oxetan-2-yl)methyl)-1H-benzo[d]imidazol-5-yl)-1,2,4-oxadiazol-5(4H)-one], the negative logarithm of the EC50 (pEC50) is over 9.00.

Compound `O=c1[nH]c(-c2ccc3c(nc(CN4CCC(c5cccc(OCc6ccc(Cl)cc6F)n5)CC4)n3C[C@@H]3CCO3)c2F)no1` [Compound 35, (S)-3-(2-((4-(6-((4-chloro-2-fluorobenzyl)oxy)pyridin-2-yl)piperidin-1-yl)methyl)-4-fluoro-1-(oxetan-2-ylmethyl)-1H-benzo[d]imidazol-5-yl)-1,2,4-oxadiazol-5(4H)-one] gave a pEC50 of over 9.00. Take `C[C@]1(c2ccc(Cl)cn2)Oc2cccc(C3CCN(Cc4nc5c(F)c(-c6noc(=O)[nH]6)ccc5n4C[C@@H]4CCO4)CC3)c2O1` [Compound 36, 3-(2-((4-((S)-2-(5-chloropyridin-2-yl)-2-methylbenzo[d][1,3]dioxol-4-yl)piperidin-1-yl)methyl)-4-fluoro-1-(((S)-oxetan-2-yl)methyl)-1H-benzo[d]imidazol-5-yl)-1,2,4-oxadiazol-5(4H)-one]: the pEC50 is over 9.00. Under `C[C@]1(c2ccc(Cl)cn2)Oc2cccc(C3CCN(Cc4nc5cc(-c6noc(=O)[nH]6)cc(F)c5n4C[C@@H]4CCO4)CC3)c2O1` [Compound 37, 3-(2-((4-((S)-2-(5-chloropyridin-2-yl)-2-methylbenzo[d][1,3]dioxol-4-yl)piperidin-1-yl)methyl)-7-fluoro-1-(((S)-oxetan-2-yl)methyl)-1H-benzo[d]imidazol-5-yl)-1,2,4-oxadiazol-5(4H)-one] stands 7.00 to 9.00; under `O=c1[nH]c(-c2cc(F)c3c(c2)nc(CN2CCC(c4cccc(OCc5ccc(Cl)cc5F)n4)CC2)n3C[C@@H]2CCO2)no1` [Compound 38, (S)-3-(2-((4-(6-((4-chloro-2-fluorobenzyl)oxy)pyridin-2-yl)piperidin-1-yl)methyl)-7-fluoro-1-(oxetan-2-ylmethyl)-1H-benzo[d]imidazol-5-yl)-1,2,4-oxadiazol-5(4H)-one], 7.00 to 9.00; under `CC1(c2ccc(Cl)cc2F)Oc2cccc(C3=CCN(Cc4nc5cc(-c6noc(=O)[nH]6)cc(F)c5n4C[C@@H]4CCO4)CC3)c2O1` (stereo partly drawn) [Compound 39, 3-(2-((4-(2-(4-chloro-2-fluorophenyl)-2-methylbenzo[d][1,3]dioxol-4-yl)-3,6-dihydropyridin-1(2H)-yl)methyl)-7-fluoro-1-(((S)-oxetan-2-yl)methyl)-1H-benzo[d]imidazol-5-yl)-1,2,4-oxadiazol-5(4H)-one], 7.00 to 9.00. `Cc1nnc(-c2ccc3c(nc(CN4CCC(c5cccc6c5O[C@@](C)(c5ccc(Cl)cc5F)O6)CC4)n3C[C@@H]3CCO3)c2F)[nH]1` [Compound 40, 2-((4-((S)-2-(4-chloro-2-fluorophenyl)-2-methylbenzo[d][1,3]dioxol-4-yl)piperidin-1-yl)methyl)-4-fluoro-5-(5-methyl-4H-1,2,4-triazol-3-yl)-1-(((S)-oxetan-2-yl)methyl)-1H-benzo[d]imidazole] showed a pEC50 of over 9.00. With `Cc1nnc(-c2cc(F)c3c(c2)nc(CN2CCC(c4cccc5c4O[C@@](C)(c4ccc(Cl)cc4F)O5)CC2)n3C[C@@H]2CCO2)[nH]1` [Compound 41, 2-((4-((S)-2-(4-chloro-2-fluorophenyl)-2-methylbenzo[d][1,3]dioxol-4-yl)piperidin-1-yl)methyl)-7-fluoro-5-(5-methyl-4H-1,2,4-triazol-3-yl)-1-(((S)-oxetan-2-yl)methyl)-1H-benzo[d]imidazole] the figure was over 9.00. With `Cc1nnc(-c2cc(F)c3c(c2)nc(CN2CCC(c4cccc5c4O[C@@](C)(c4ccc(Cl)cn4)O5)CC2)n3C[C@@H]2CCO2)[nH]1` [Compound 42, 2-((4-((S)-2-(5-chloropyridin-2-yl)-2-methylbenzo[d][1,3]dioxol-4-yl)piperidin-1-yl)methyl)-7-fluoro-5-(5-methyl-4H-1,2,4-triazol-3-yl)-1-(((S)-oxetan-2-yl)methyl)-1H-benzo[d]imidazole] the figure was over 9.00; with `Cc1nnc(-c2cc(F)c3c(c2)nc(CN2CC=C(c4cccc5c4OC(C)(c4ccc(Cl)cc4F)O5)CC2)n3C[C@@H]2CCO2)[nH]1` (stereo partly drawn) [Compound 43, 2-((4-(2-(4-chloro-2-fluorophenyl)-2-methylbenzo[d][1,3]dioxol-4-yl)-3,6-dihydropyridin-1(2H)-yl)methyl)-7-fluoro-5-(5-methyl-4H-1,2,4-triazol-3-yl)-1-(((S)-oxetan-2-yl)methyl)-1H-benzo[d]imidazole], 7.00 to 9.00; with `C[C@]1(c2ccc(Cl)cc2F)Oc2cccc(C3=CCN(Cc4nc5cc(-c6nnc(C(F)(F)F)[nH]6)ncc5n4C[C@@H]4CCO4)CC3)c2O1` [Compound 44, 2-((4-((S)-2-(4-chloro-2-fluorophenyl)-2-methylbenzo[d][1,3]dioxol-4-yl)-3,6-dihydropyridin-1(2H)-yl)methyl)-3-(((S)-oxetan-2-yl)methyl)-6-(5-(trifluoromethyl)-4H-1,2,4-triazol-3-yl)-3H-imidazo[4,5-c]pyridine], over 9.00.

In turn, `C[C@]1(c2ccc(Cl)cc2F)Oc2cccc(C3=CCN(Cc4nc5cc(-c6nnc(C(F)(F)F)[nH]6)cnc5n4C[C@@H]4CCO4)CC3)c2O1` [Compound 45, 2-((4-((S)-2-(4-chloro-2-fluorophenyl)-2-methylbenzo[d][1,3]dioxol-4-yl)-3,6-dihydropyridin-1(2H)-yl)methyl)-3-(((S)-oxetan-2-yl)methyl)-6-(5-(trifluoromethyl)-4H-1,2,4-triazol-3-yl)-3H-imidazo[4,5-b]pyridine] showed a pEC50 of over 9.00. In turn, `C[C@]1(c2ccc(Cl)cc2F)Oc2cccc(C3=CCN(Cc4nc5cc(-c6nnc(C(F)(F)F)[nH]6)nnc5n4C[C@@H]4CCO4)CC3)c2O1` [Compound 46, 6-((4-((S)-2-(4-chloro-2-fluorophenyl)-2-methylbenzo[d][1,3]dioxol-4-yl)-3,6-dihydropyridin-1(2H)-yl)methyl)-7-(((S)-oxetan-2-yl)methyl)-3-(5-(trifluoromethyl)-4H-1,2,4-triazol-3-yl)-7H-imidazo[4,5-c]pyridazine] showed a pEC50 of over 9.00. `Fc1cc(Cl)ccc1COc1ccc(F)c(C2CCN(Cc3nc4cc(-c5nnc(C(F)(F)F)[nH]5)ncc4n3C[C@@H]3CCO3)CC2)n1` [Compound 47, 6-[(4-chloro-2-fluorophenyl)methoxy]-3-fluoro-2-{1-[(3-{[(2S)-oxetan-2-yl]methyl}-6-[5-(trifluoromethyl)-4H-1,2,4-triazol-3-yl]-3H-imidazo[4,5-c]pyridin-2-yl)methyl]piperidin-4-yl}pyridine] showed a pEC50 of over 9.00.

`Fc1cc(Cl)ccc1COc1nc(N2CCN(Cc3nc4cc(-c5nnc(C(F)(F)F)[nH]5)ncc4n3C[C@@H]3CCO3)CC2)c(F)cc1F` [Compound 48, 1-{6-[(4-chloro-2-fluorophenyl)methoxy]-3,5-difluoropyridin-2-yl}-4-[(3-{[(2S)-oxetan-2-yl]methyl}-6-[5-(trifluoromethyl)-4H-1,2,4-triazol-3-yl]-3H-imidazo[4,5-c]pyridin-2-yl)methyl]piperazine] had a pEC50 of over 9.00. For `Fc1cc(Cl)ccc1COc1nc(C2CCN(Cc3nc4cc(-c5nnc(C(F)(F)F)[nH]5)ncc4n3C[C@@H]3CCO3)CC2)c(F)cc1F` [Compound 49, 2-[(4-chloro-2-fluorophenyl)methoxy]-3,5-difluoro-6-{1-[(3-{[(2S)-oxetan-2-yl]methyl}-6-[5-(trifluoromethyl)-4H-1,2,4-triazol-3-yl]-3H-imidazo[4,5-c]pyridin-2-yl)methyl]piperidin-4-yl}pyridine], the negative-log EC50 (pEC50) was over 9.00. Under `Fc1cc(Cl)ccc1COc1nc(C2CCN(Cc3nc4cc(-c5nnc(C(F)(F)F)[nH]5)nnc4n3C[C@@H]3CCO3)CC2)c(F)cc1F` [Compound 50, 2-[(4-chloro-2-fluorophenyl)methoxy]-3,5-difluoro-6-{1-[(7-{[(2S)-oxetan-2-yl]methyl}-3-[5-(trifluoromethyl)-4H-1,2,4-triazol-3-yl]-7H-imidazo[4,5-c]pyridazin-6-yl)methyl]piperidin-4-yl}pyridine] stands over 9.00.

The values are drawn from patent publication US20250250269A1, “HETEROCYCLIC GLP-1 AGONISTS” (Gasherbrum Bio, Inc., priority 2022, published 2025).
